Test results reported in patent publication US20050019746A1, “Apoptosis-related kinase/GPCRs” (EiRx Therapeutics Limited, priority 2003, published 2005).

How the values were obtained:
Format in all cases: cell-based, human
[1] = test system: A549 cells; assay: 10-14 day Clonagenicity Assay (MTT), A549; conditions: for percentage survival relative to the missense, n = 1: independent experiment n = 1, dilution point of maximum toxicity; for percentage survival relative to the missense, n = 3: independent experiment n = 3, dilution point of maximum toxicity
From the text: (§1) The Clonagenicity Assay represents a Cell Viability Screen that allows assessment of a cytotoxic insult at a variety of seed densities of cancer cell lines over an extended period of logarithmic growth, such that the definitive effect of the test substance can be accurately quantified. In this instance, the ‘cytotoxic insult’ to be tested involves the transfection of siRNA Oligomers to knockdown the expression of novel target Kinases and GPCRs as outlined previously. Cell number is quantified 10-14 days post siRNA transfection by MTT conversion as described in detail in Example 6.
(§2) The Clonagenicity Assay is optimised for each cell line examined with respect to seed number. The seed number varies for each cell line and accounts for the differences in cell size, growth rate and sensitivity to transfection-induced toxicity for each cell line pursued. Cells lines given as models for this example include HCT15, MCF7, A549, SKOV3, DU145, U251, PC3, A498 and HeLa. The siRNA oligo to Survivin serves as a positive control for toxicity in this assay and the missense control oligomer acts as a negative control as described in detail in Examples 5 and 6. The c-Raf, BCL2 and PI3K siRNA oligomers serve as additional controls as previously mentioned. The Clonagenicity assay is performed as outlined below.
(§3) Cells are seeded into a 96-well plate as described below and allowed to adhere overnight at 37° C. in a humidified atmosphere containing 5% CO2 in air. Wells are seeded with an appropriate cell number (cell line dependent) in Column 1 of the 96 well plates and this cell suspension is diluted 1 in 2 across the 96 well plates from Column 1 through to 6 (represented on the x-axis in results). Cells are next transfected with siRNA Oligomers, at a concentration of 2 μg/ml, against the genes of interest. Transfections continue for 4 hrs after which the transfection solution is removed and cells are refed with fresh medium and allow to incubate overnight. An additional media change@24 hrs post transfection is made to minimise toxicity of the transfection reagent. Cells are subsequently incubated for a 10-14 Day period post transfection at a 37° C. incubation as described above. Medium is renewed weekly following which MTT quantification is performed as described in Example 5.
(§4) To be considered cytotoxic, the siRNA Oligo against the gene target must induce a decreased viability in a cell line across at least 2 seed densities in the clonagenicity assay, such that a significant difference between the target gene and MS is observed i.e. no crossing of the Standard Error bars is detected. The average percentage viability, relative to missense, is recorded for the dilution point at which Maximum Toxicity is induced is recorded in Table 13.
(§5) Table 13 Clonagenicity Assay—This table gives the average percentage survival of the indicated cell lines relative to the missense in a clonagenicity assay, over 3 independent experiments. As an internal reference, the known survival gene ‘Survivin’, BCL2, c-Raf and PI3KR1 was also targeted by siRNA. When no Cytotoxic response is detected ‘-’ is recorded.

[2] = test system: SKOV3 cells; assay: 10-14 day Clonagenicity Assay (MTT), SKOV3; conditions: for percentage survival relative to the missense, n = 1: independent experiment n = 1, dilution point of maximum toxicity; for percentage survival relative to the missense, n = 3: independent experiment n = 3, dilution point of maximum toxicity
From the text: as §1, §2, §3, §4, §5

[3] = test system: U251 cells; assay: 10-14 day Clonagenicity Assay (MTT), U251; conditions: for percentage survival relative to the missense, n = 1 / percentage survival relative to the missense, n = 3 / percentage survival relative to the missense, n = 2: U251, clonagenicity assay, dilution point of maximum toxicity; for percentage survival relative to the missense, n = 1: independent experiment n = 1; for percentage survival relative to the missense, n = 3: independent experiment n = 3; for percentage survival relative to the missense, n = 2: independent experiment n = 2; for viability/cytotoxicity in the Clonagenicity Assay: U251, 10-14 days post transfection, MTT, FIG. 35
From the text: as §1, §2, §3
Note seed density decreases from 3.5 to 0.1×10^3 cells on the x-axis and the y-axis represents cell number as quantified by MTT conversion, 10-14 days post transfection. This decrease is substantially greater that with the apoptosis gene, Survivin. […] Note seed density decreases from 3.5 to 0.1×10^3 cells on the x-axis and the y-axis represents cell number as quantified by MTT conversion, 10-14 days post transfection.
as §4, §5

[4] = test system: PC3 cells; assay: 10-14 day Clonagenicity Assay (MTT), PC3; conditions: independent experiment n = 3, dilution point of maximum toxicity
From the text: as §1, §2, §3, §4, §5

[5] = test system: A498 cells; assay: 10-14 day Clonagenicity Assay (MTT), A498; conditions: for percentage survival relative to the missense, n = 1: independent experiment n = 1, dilution point of maximum toxicity; for percentage survival relative to the missense, n = 3: independent experiment n = 3, dilution point of maximum toxicity
From the text: as §1, §2, §3, §4, §5

[6] = test system: HCT15 cells; assay: 10-14 day Clonagenicity Assay (MTT), HCT15; conditions: independent experiment n = 1, dilution point of maximum toxicity
From the text: as §1, §2, §3, §4, §5

[7] = test system: DU145 cells; assay: 10-14 day Clonagenicity Assay (MTT), DU145; conditions: for percentage survival relative to the missense, n = 1: independent experiment n = 1, dilution point of maximum toxicity; for percentage survival relative to the missense, n = 2: independent experiment n = 2, dilution point of maximum toxicity; for percentage survival relative to the missense, n = 3: independent experiment n = 3, dilution point of maximum toxicity
From the text: as §1, §2, §3, §4, §5

[8] = independent experiment n = 2, dilution point of maximum toxicity

Substance	percentage survival relative to the missense, n = 1 [1]	percentage survival relative to the missense, n = 3 [1]	percentage survival relative to the missense, n = 1 [2]	percentage survival relative to the missense, n = 3 [2]	percentage survival relative to the missense, n = 1 [3]	percentage survival relative to the missense, n = 3 [3]	percentage survival relative to the missense, n = 3 [4]	percentage survival relative to the missense, n = 1 [5]	percentage survival relative to the missense, n = 3 [5]	percentage survival relative to the missense, n = 1 [6]	percentage survival relative to the missense, n = 1 [7]	percentage survival relative to the missense, n = 2 [7]	percentage survival relative to the missense, n = 3 [7]	percentage survival relative to the missense, n = 2 [3]	viability/cytotoxicity in the Clonagenicity Assay [3]	percentage survival relative to the missense, n = 2 [1, 8]	percentage survival relative to the missense, n = 2 [2, 8]
CNK/PRK SEQ 2 (sense CAGAAAGACUGUGCACUACTT; antisense GUAGUGCACAGUCUUUCUGTT; chemistry not given here)	62.5%	25.6%	65.7%	72.2%	35.2%	57.5%	28.3%	20%	8.2%								
CNK/PRK (sense UCGUAGUGCUUGUACUUACtt; antisense GUAAGUACAAGCACUACGAtt; as printed in the source, key not given here)			13.8%	50.1%	48.8%	44.5%		9.5%	7.2%	75.9%	46.1%	39%	16.8%				
PSKH1 SEQ 2 (sense UUGGCCGAGGCAGCUUCAGTT; antisense CUGAAGCUGCCUCGGCCAATT; chemistry not given here)	52.3%	28%	42.3%	45.1%	52.1%	34.1%	21.8%	36%	6%				35.2%	50.7%			
MKNK SEQ 2 (sense AUUGCAAGGAGGUUCCAUCTT; antisense GAUGGAACCUCCUUGCAAUTT; chemistry not given here)		54.8%		47.6%		52.1%	39.5%	56.2%	6%				53.6%	43.6%			
siRNA FLJ13351: sense CACCAAUUAGUUCAAAGCUtt, antisense AGCUUUGAACUAAUUGGUGtt (sense CACCAAUUAGUUCAAAGCUTT; antisense AGCUUUGAACUAAUUGGUGTT; chemistry not given here)															does not induce cytotoxicity		
siRNA STK6: sense GCCGGUUCAGAAUCAGAAGtt, antisense CUUCUGAUUCUGAACCGGCtt (sense GCCGGUUCAGAAUCAGAAGTT; antisense CUUCUGAUUCUGAACCGGCTT; chemistry not given here)	56.8%	31.6%	10.2%	37.2%	12.8%	25.8%		18.5%	32.6%	69.6%	48.1%	45.3%	34.8%	51.5%	decreases viability	69.6%	35.3%
siRNA PI3KR1: control siRNA, sense AUGAUCGAUGUGCACGUUUtt, antisense AAACGUGCACAUCGAUCAUtt (sense AUGAUCGAUGUGCACGUUUTT; antisense AAACGUGCACAUCGAUCAUTT; chemistry not given here) [reference compound]		38.3%	55.3%	41.7%	56.3%	21.4%			10%				44.8%				
MPSK1 SEQ 2 (sense GCCGACAUGCAUCGCCUCUTT; antisense AGAGGCGAUGCAUGUCGGCTT; chemistry not given here)	39.1%	26.1%		73.8%		59.3%	16.7%	39.3%	8.9%				63.4%				
